Results on two compounds are retold here after patent publication US7951406B2, “Therapeutic compounds isolated from Calomeria amaranthoides” (Caroline Van Haaften, priority 2004, dated 2011).

Data set [1] relates to human skin fibroblasts. Briefly: Cell viability by photomicrography, comparison with Cisplatinum and Docetaxol, fibroblasts. The settings on record: 10 μg and 100 μg, compared with 1 μg; 48 hours.
The subject of data set [2] is ovarian cancer cell line JC. The settings on record: 48 hours.

With `N.N.[Cl][Pt][Cl]` [Cisplatinum], the “cell viability in fibroblasts” value in data set [1] was “greater reduction in cell viability”.
Consider `CC(=O)O[C@@]12CO[C@@H]1C[C@H](O)[C@@]1(C)C(=O)[C@H](O)C3=C(C)[C@@H](OC(=O)[C@H](O)[C@@H](NC(=O)OC(C)(C)C)c4ccccc4)C[C@@](O)([C@@H](OC(=O)c4ccccc4)[C@H]21)C3(C)C` [Docetaxol], for which, in data set [1], the “cell viability in fibroblasts” value is reported as “greater reduction in cell viability”. The “cytotoxicity in JC cells, treatments compared” value in data set [2] (10 μg dosage level) was “less cytotoxic than either the Calomeria extract or Cisplatinum”. Besides, in data set [2], the “resistance of JC cells” value is recorded as “more resistant”.
